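Grown in 96-well plates, cells were treated for 48 hours with each compound at five concentrations. Insufficient inhibition: endpoint recorded as highest concentration tested. GI50 is the concentration that inhibits growth by half.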 The source made the active and inactive calls. Rule as the data show it: active = GI50 up to about 1.1 µM and inactive = higher.
Columns and labels:
Test in all cases: growth of human tumour cells (NCI), 48 h
TK-10 = system: TK-10
PC-3 = system: PC-3
SNB-75 = system: SNB-75
DU-145 = system: DU-145
CAKI-1 = system: CAKI-1
CCRF-CEM = system: CCRF-CEM
HCT-15 = system: HCT-15
KM12 = system: KM12
SF-539 = system: SF-539
SR = system: SR
UO-31 = system: UO-31
Hs-578T = system: Hs-578T
K562 = system: K562
OVCAR-5 = system: OVCAR-5
SN12C = system: SN12C
LOX IMVI = system: LOX IMVI
SNB-19 = system: SNB-19
A549 = system: A549
ACHN = system: ACHN

Structure (SMILES) | GI50 (TK-10) | GI50 (PC-3) | GI50 (SNB-75) | GI50 (DU-145) | GI50 (CAKI-1) | GI50 (CCRF-CEM) | GI50 (HCT-15) | GI50 (KM12) | GI50 (SF-539) | GI50 (SR) | GI50 (UO-31) | GI50 (Hs-578T) | GI50 (K562) | GI50 (OVCAR-5) | GI50 (SN12C) | GI50 (LOX IMVI) | GI50 (SNB-19) | GI50 (A549) | GI50 (ACHN)
CCCC1(N)CC(OC)OC(C)C1O (centres undefined) | > 100 µM (inactive) | > 100 µM (inactive) | > 100 µM (inactive) | > 100 µM (inactive) | > 100 µM (inactive) | > 100 µM (inactive) | > 100 µM | > 100 µM (inactive) | > 100 µM (inactive) | > 100 µM (inactive) | > 100 µM (inactive) | > 100 µM (inactive) | > 100 µM (inactive) | > 100 µM (inactive) | > 100 µM (inactive) | > 100 µM (inactive) | > 100 µM (inactive) | > 100 µM (inactive) | > 100 µM (inactive)
O=c1oc2c(Cl)cc(Cl)cc2cc1-c1cn2c(n1)sc1ccccc12 | > 100 µM (inactive) | 47.1 µM (inactive) | > 100 µM (inactive) | 74 µM (inactive) | 71.6 µM (inactive) | 17.3 µM (inactive) | 28.6 µM | > 100 µM (inactive) | > 100 µM (inactive) | 21.1 µM (inactive) | 36.1 µM (inactive) | > 100 µM (inactive) | 20.2 µM (inactive) | > 100 µM (inactive) | 67.8 µM (inactive) | 60.3 µM (inactive) | > 100 µM (inactive) | > 100 µM (inactive) | 65.3 µM (inactive)
O=C1Nc2ccccc2/C1=N/NC(=S)Nc1ccc([N+](=O)[O-])cc1 | 10 µM (inactive) | 3.17 µM (inactive) | 13.9 µM (inactive) | 14.8 µM (inactive) | 6.07 µM (inactive) | 1.53 µM (inactive) | 2.33 µM | 10.8 µM (inactive) | 13.8 µM (inactive) | 4.72 µM (inactive) | 4.81 µM (inactive) | 15.6 µM (inactive) | 2.88 µM (inactive) | 22.9 µM (inactive) | 16.9 µM (inactive) | 2.94 µM (inactive) | 10.7 µM (inactive) | 6.9 µM (inactive) | 6.84 µM (inactive)
O=c1c(C(c2ccccn2)c2c(O)oc3cc(O)ccc3c2=O)c(O)oc2cc(O)ccc12 | > 100 µM (inactive) | > 100 µM (inactive) | 66.2 µM (inactive) | > 100 µM (inactive) | > 100 µM (inactive) | > 100 µM (inactive) | > 100 µM | > 100 µM (inactive) | > 100 µM (inactive) | > 100 µM (inactive) | > 100 µM (inactive) | > 100 µM (inactive) | > 100 µM (inactive) | > 100 µM (inactive) | > 100 µM (inactive) | > 100 µM (inactive) | > 100 µM (inactive) | > 100 µM (inactive) | > 100 µM (inactive)
O=[N+]([O-])c1ccc(-n2nc3ccc4c(no[n+]4[O-])c3[n+]2[O-])c([N+](=O)[O-])c1 | 2.86 µM (inactive) | 8 µM (inactive) | 8.81 µM (inactive) | 5.56 µM (inactive) | 2.42 µM (inactive) | 0.938 µM (active) | 2.69 µM | 1.79 µM (inactive) | 6.15 µM (inactive) | 1.91 µM (inactive) | 5.27 µM (inactive) | 2.81 µM (inactive) | 2.14 µM (inactive) | 6.41 µM (inactive) | 2.56 µM (inactive) | 1.77 µM (inactive) | 6.24 µM (inactive) | 16 µM (inactive) | 2.45 µM (inactive)
C[C@H]1C2Cc3cc(O)ccc3[C@@]1(C)CCN2CCc1ccc(N)cc1 | > 100 µM (inactive) | 18.8 µM (inactive) | > 100 µM (inactive) | > 100 µM (inactive) | > 100 µM (inactive) | 18.5 µM (inactive) | 18.2 µM | 16.7 µM (inactive) | 16.7 µM (inactive) | 21.6 µM (inactive) | 37.2 µM (inactive) | > 100 µM (inactive) | 22.3 µM (inactive) | > 100 µM (inactive) | 98.9 µM (inactive) | 14.1 µM (inactive) | 81.7 µM (inactive) | 28.6 µM (inactive) | 58.1 µM (inactive)
COc1cc2c(cc1O)Cc1c-2[n+](C)cc2cc(OC)c(OC)cc12 | > 88.1 µM (inactive) | 28.8 µM (inactive) | 63.2 µM (inactive) | 4.23 µM (inactive) | 25.8 µM (inactive) | 0.407 µM (active) | 24.4 µM | > 59.6 µM (inactive) | 1.82 µM (inactive) | 0.118 µM (active) | 8.53 µM (inactive) | 60 µM (inactive) | 1.93 µM (inactive) | > 100 µM (inactive) | 4.8 µM (inactive) | 5.94 µM (inactive) | 1.64 µM (inactive) | 38 µM (inactive) | 1.5 µM (inactive)
CC(=O)OCC1OC(n2c(N)c(C#N)c(-c3ccccc3)c(C#N)c2=S)C(OC(C)=O)C(OC(C)=O)C1OC(C)=O (centres undefined) | > 100 µM (inactive) | > 100 µM (inactive) | 7.33 µM (inactive) | > 100 µM (inactive) | 44.3 µM (inactive) | > 100 µM (inactive) | > 100 µM | > 100 µM (inactive) | > 46.9 µM (inactive) | > 100 µM (inactive) | 45 µM (inactive) | 14.6 µM (inactive) | > 100 µM (inactive) | > 100 µM (inactive) | > 100 µM (inactive) | > 100 µM (inactive) | 19 µM (inactive) | > 100 µM (inactive) | > 85.7 µM (inactive)
COc1ccc2c(c1)-c1nn(CCN(C)C)c3ccc(C(=O)NCCCN(C)CCCNC(=O)c4ccc5c6c(c7cc(OC)ccc7nc46)NN5CCN(C)C)c(c13)N2 | 0.102 µM (active) | 0.0208 µM (active) | 0.114 µM (active) | 0.0284 µM (active) | 0.346 µM (active) | < 0.01 µM (active) | 0.251 µM | 0.0284 µM (active) | < 0.01 µM (active) | 0.127 µM (active) | 0.183 µM (active) | 0.201 µM (active) | 0.0128 µM (active) | 0.126 µM (active) | 0.0225 µM (active) | 0.0192 µM (active) | 0.0159 µM (active) | 0.0136 µM (active) | 0.0607 µM (active)
CO[C@]12S[C@@H]3CCCC[C@@]31C(C)(C)C(=O)N2c1ccccc1 | 55.5 µM (inactive) | 23.6 µM (inactive) | 51.5 µM (inactive) | 55.3 µM (inactive) | 48.5 µM (inactive) | 13.5 µM (inactive) | 29.1 µM | 36.7 µM (inactive) | 4.11 µM (inactive) | 28.5 µM (inactive) | 91.4 µM (inactive) | 75 µM (inactive) | 29.7 µM (inactive) | > 100 µM (inactive) | 18.4 µM (inactive) | 32.6 µM (inactive) | > 100 µM (inactive) | 67.3 µM (inactive) | 37.4 µM (inactive)
CC(=O)O[C@H]1CC[C@]2(C=O)[C@H]3CC[C@]4(C)[C@@H](C5=CC(=O)OC5)CC[C@]4(O)[C@@H]3CC[C@]2(O)C1 [STROPHANTHIDIN ACETATE] | 0.211 µM (active) | 0.264 µM (active) | 0.601 µM (active) | 0.164 µM (active) | 0.0536 µM (active) | 0.0605 µM (active) | 0.203 µM | 0.692 µM (active) | 0.13 µM (active) | 0.528 µM (active) | 0.23 µM (active) | 0.45 µM (active) | 0.83 µM (active) | 0.575 µM (active) | 0.42 µM (active) | 0.222 µM (active) | 0.608 µM (active) | 0.0684 µM (active) | 0.047 µM (active)
